For series [1], the system named is Rattus norvegicus. To be noted: for NOAEL: clinical chemistry.
Series [2] deals with Oncorhynchus mykiss.
The test system of series [3] is Apis mellifera. To be noted: acute, mortality.
The test system of series [4] is Bibionidae. To be noted: chronic/long-term; duration: 28 days.
The subject of series [5] is Daphnia magna. Conditions: chronic/long-term; duration: 21 days.
Series [6] relates to Colinus virginianus.
The test system of series [7] is Tagia sp.
The subject of series [8] is Oryctolagus sp. To be noted: reproduction developmental; reproduction.
The test system of series [9] is Typhlodromus pyri. Briefly: LR50; higher = less toxic. To be noted: not reported; mortality.
Series [10] concerns Aphidius rhopalosiphi. Briefly: LR50; higher = less toxic. To be noted: not reported; mortality.

Converted amounts (≈) assume the structure as drawn. Bounds are passed on as bounds.

Take `CCOP(=O)(SC(C)CC)SC(C)CC` (configuration not stated) [Cadusafos]: the LD50 in [1] (acute, oral, mortality) was 37.1 mg/kg; in [3] (dermal) it was 1.8 µg/piece; in series [3] (oral, unspecified), 2.07 µg/piece; in series [6] (acute, oral, mortality), 16.1 mg/kg-day. Moreover, the NOAEL in series [1] (chronic, duration: 2 years, F) stood at 0.045 mg/kg-day; in [1] (subchronic, duration: 90 days, oral), 0.067 mg/kg-day; in [8] it was 0.3 mg/kg-day. Also, the LC50 amounted to 0.13 µg/mL (≈ 0.481 µM) in series [2] (acute, duration: 96 hours, mortality); 10.8 mg/kg-day in [6] (acute, oral, diet, mortality); 7.2 mg/kg in series [7] (acute, mortality). The NOEC stood at 5.22 µg/L in [2] (chronic/long-term, duration: 95 days); 32 µg/kg in [4]; 0.231 µg/L in [5]; 1.8 mg/kg in series [7] (chronic/long-term). The compound also had an NOEL in [6] (reproduction developmental) not below 1.1 mg/kg-day. Also, the results for the LR50 in series [9] and in [10] were 44.4 g/ha and 3.75 g/ha, respectively.

The record behind these values is EPA's ToxValDB 9.5 (doi:10.2903/j.efsa.2009.262r).
